According to PubChem BioAssay (NCI):
“And” between values parts separate entries of the source, which are not always exact repeats. Identical values can stand only once.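 Grown in 96-well plates, cells were treated for 48 hours with each compound at five concentrations. Insufficient inhibition: endpoint recorded as highest concentration tested. At the GI50, growth is halved. At the TGI there is no net growth.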

Tests used:
Test in all cases: NCI tumour cell line growth inhibition, 48 h
[1] = system: MOLT-4 leukemia
[2] = system: HCT-15 colon
[3] = system: HOP-92 NSCLC
[4] = system: NCI-H522 lung
[5] = system: M19-MEL melanoma
[6] = system: SF-295 CNS
[7] = system: SF-268 CNS
[8] = system: HCC-2998 colon
[9] = system: RXF-631 renal
[10] = system: U251 CNS
[11] = system: SR leukemia
[12] = system: CAKI-1 renal
[13] = system: TK-10 renal
[14] = system: RPMI-8226 leukemia
[15] = system: MALME-3M melanoma
[16] = system: SF-539 CNS
[17] = system: XF 498 CNS
[18] = system: EKVX NSCLC
[19] = system: SK-MEL-2 melanoma
[20] = system: HOP-62 NSCLC
[21] = system: M14 melanoma
[22] = system: OVCAR-3 ovarian
[23] = system: OVCAR-4 ovarian
[24] = system: DMS 114 small cell lung
[25] = system: SNB-19 CNS
[26] = system: SN12C renal
[27] = system: OVCAR-5 ovarian
[28] = system: K-562 leukemia
[29] = system: SW-620 colon
[30] = system: LOX IMVI melanoma
[31] = system: NCI-H226 lung
[32] = system: A549 NSCLC
[33] = system: LXFL 529 NSCLC
[34] = system: UACC-257 melanoma
[35] = system: UACC-62 melanoma
[36] = system: SNB-78 CNS
[37] = system: NCI-H460 lung
[38] = system: SK-OV-3 ovarian
[39] = system: HT29 colon
[40] = system: CCRF-CEM leukemia
[41] = system: ACHN renal
[42] = system: KM20L2 colon
[43] = system: DLD-1 colon
[44] = system: NCI-H23 lung
[45] = system: HL-60(TB) leukemia
[46] = system: OVCAR-8 ovarian
[47] = system: DMS 273 small cell lung
[48] = system: HOP-18 NSCLC
[49] = system: IGROV1 ovarian
[50] = system: UO-31 renal
[51] = system: RXF 393 renal
[52] = system: SNB-75 CNS
[53] = system: HCT-116 colon
[54] = system: SK-MEL-5 melanoma
[55] = system: KM12 colon
[56] = system: SK-MEL-28 melanoma
[57] = system: COLO 205 colon
[58] = system: A498 renal
[59] = system: PC-3 prostate
[60] = system: BT-549 breast
[61] = system: MCF7 breast
[62] = system: MDA-MB-231 breast
[63] = system: P388/ADR leukemia
[64] = system: DU-145 prostate
[65] = system: 786-0 renal
[66] = system: P388 leukemia
[67] = system: NCI/ADR-RES ovarian
[68] = system: MDA-MB-435
[69] = system: MDA-N

COc1cc2c(cc1OC)C1Cc3sccc3CN1CC2 (configuration not stated)
TGI [1]: > 100 µM | TGI [2]: > 100 µM | TGI [3]: > 100 µM | TGI [4]: > 100 µM | TGI [5]: > 100 µM | TGI [6]: > 100 µM | TGI [7]: > 100 µM | TGI [8]: > 100 µM | TGI [9]: > 100 µM | TGI [10]: > 100 µM | TGI [11]: > 100 µM | TGI [12]: > 100 µM | TGI [13]: > 100 µM | TGI [14]: > 100 µM | TGI [15]: > 100 µM | TGI [16]: > 100 µM | TGI [17]: > 100 µM | TGI [18]: > 100 µM | TGI [19]: > 100 µM | TGI [20]: > 100 µM | TGI [21]: > 100 µM | TGI [22]: > 100 µM | TGI [23]: > 100 µM | TGI [24]: > 100 µM | TGI [25]: > 100 µM | TGI [26]: > 100 µM | TGI [27]: > 100 µM | TGI [28]: > 100 µM | TGI [29]: > 100 µM | TGI [30]: > 100 µM | TGI [31]: > 100 µM | TGI [32]: > 100 µM | TGI [33]: > 100 µM | TGI [34]: > 100 µM | TGI [35]: > 100 µM | TGI [36]: > 100 µM | TGI [37]: > 100 µM | TGI [38]: > 100 µM | TGI [39]: > 100 µM | TGI [40]: > 100 µM | TGI [41]: > 100 µM | TGI [42]: > 100 µM | TGI [43]: > 100 µM | TGI [44]: > 100 µM | TGI [45]: > 100 µM | TGI [46]: > 100 µM | TGI [47]: > 100 µM | TGI [48]: > 100 µM | TGI [49]: > 100 µM | TGI [50]: > 100 µM | TGI [51]: > 100 µM | TGI [52]: > 100 µM | TGI [53]: > 100 µM | TGI [54]: > 100 µM

Cc1ccc(NC(=O)OCC(COc2ccc(Cl)cc2)OC(=O)Nc2ccc(C)cc2)cc1 (configuration not stated)
TGI [55]: > 100 µM | TGI [1]: > 100 µM | TGI [2]: > 100 µM | TGI [3]: 31 µM | TGI [4]: > 100 µM | TGI [5]: > 100 µM | TGI [6]: 80.6 µM | TGI [7]: > 100 µM | TGI [8]: > 100 µM | TGI [56]: > 100 µM | TGI [9]: 24.9 µM | TGI [10]: > 100 µM | TGI [11]: > 100 µM | TGI [12]: 57 µM | TGI [13]: 96.9 µM | TGI [14]: > 100 µM | TGI [15]: 54.2 µM | TGI [16]: 52.3 µM | TGI [57]: > 100 µM | TGI [17]: 86.7 µM | TGI [18]: > 100 µM | TGI [19]: 58.4 µM | TGI [20]: > 100 µM | TGI [21]: 63.8 µM | TGI [22]: 61.8 µM | TGI [23]: 73.6 µM | TGI [24]: 98.8 µM | TGI [25]: 57.3 µM | TGI [26]: > 100 µM | TGI [27]: > 100 µM | TGI [28]: 60.4 µM | TGI [29]: > 100 µM | TGI [30]: 96.9 µM | TGI [31]: 67.9 µM | TGI [32]: > 100 µM | TGI [33]: > 100 µM | TGI [58]: 60.4 µM | TGI [34]: > 100 µM | TGI [35]: > 100 µM | TGI [36]: 82.5 µM | TGI [37]: > 100 µM | TGI [38]: > 100 µM | TGI [39]: 71.7 µM | TGI [40]: > 100 µM | TGI [41]: > 100 µM | TGI [42]: > 100 µM | TGI [43]: > 100 µM | TGI [44]: > 100 µM | TGI [45]: 27.9 µM | TGI [46]: > 100 µM | TGI [47]: 66.4 µM | TGI [48]: > 100 µM | TGI [49]: > 100 µM | TGI [50]: > 100 µM | TGI [51]: 43.1 µM | TGI [52]: 36.9 µM | TGI [53]: > 100 µM | TGI [54]: > 100 µM

COc1ccc2nc3ccccc3c(NCCN(C)CCCl)c2c1
TGI [55]: 4.13 µM | TGI [1]: 0.497 µM | TGI [2]: 7.56 µM | TGI [59]: 2.24 µM | TGI [60]: 3.24 µM | TGI [3]: 3.85 µM | TGI [4]: 1.51 µM | TGI [5]: 2.48 µM | TGI [6]: 4.17 µM | TGI [7]: 3.85 µM | TGI [8]: 2.15 µM | TGI [56]: 3.97 µM | TGI [61]: 4.18 µM | TGI [10]: 3.16 µM | TGI [11]: 2.31 µM | TGI [12]: 2.2 µM | TGI [13]: 15.7 µM | TGI [14]: 1.53 µM | TGI [15]: 1.5 µM | TGI [16]: 1.85 µM | TGI [57]: 1.84 µM | TGI [17]: 2.3 µM | TGI [18]: 4.37 µM | TGI [19]: 2.41 µM | TGI [20]: 3.7 µM | TGI [21]: 2.29 µM | TGI [22]: 3.29 µM | TGI [23]: 2.8 µM | TGI [24]: 2.31 µM | TGI [62]: 2.98 µM | TGI [25]: 7.44 µM | TGI [63]: 8.73 µM | TGI [26]: 2.86 µM | TGI [27]: 3.84 µM | TGI [64]: 4.47 µM | TGI [65]: 1.89 µM | TGI [66]: 1.51 µM | TGI [28]: 9.24 µM | TGI [29]: 1.91 µM | TGI [30]: 1.77 µM | TGI [31]: 2.26 µM | TGI [67]: 3.79 µM | TGI [32]: 4.88 µM | TGI [33]: 1.85 µM | TGI [58]: 3.02 µM | TGI [34]: 9.46 µM | TGI [35]: 2.03 µM | TGI [36]: 4.76 µM | TGI [37]: 2.49 µM | TGI [68]: 2.15 µM | TGI [38]: 3.5 µM | TGI [39]: 4.95 µM | TGI [40]: 3.67 µM | TGI [41]: 1.91 µM | TGI [42]: 2.88 µM | TGI [43]: 3.45 µM | TGI [44]: 1.88 µM | TGI [45]: 1.73 µM | TGI [46]: 2.76 µM | TGI [47]: 2.35 µM | TGI [48]: 6.29 µM | TGI [49]: 2.58 µM | TGI [50]: 3.38 µM | TGI [51]: 1.86 µM | TGI [52]: 4.07 µM | TGI [53]: 2.63 µM | TGI [54]: 2.03 µM | TGI [69]: 2.4 µM

CC(=O)OC1COC(N2CCc3ccccc32)C(OC(C)=O)C1OC(C)=O (configuration not stated)
TGI [55]: > 100 µM | TGI [1]: > 100 µM | TGI [2]: > 100 µM | GI50 [3]: > 100 µM | TGI [3]: > 100 µM | TGI [4]: > 100 µM | TGI [5]: > 100 µM | TGI [6]: > 100 µM | TGI [7]: > 100 µM | TGI [8]: > 100 µM | TGI [56]: > 100 µM | TGI [9]: > 100 µM | TGI [10]: > 100 µM | TGI [11]: > 100 µM | TGI [12]: > 100 µM | TGI [13]: > 100 µM | TGI [14]: > 100 µM | TGI [15]: > 100 µM | TGI [16]: > 100 µM | TGI [57]: > 100 µM | TGI [17]: > 100 µM | TGI [18]: > 100 µM | TGI [19]: > 100 µM | TGI [20]: > 100 µM | TGI [21]: > 100 µM | TGI [22]: > 100 µM | TGI [23]: > 100 µM | TGI [24]: > 100 µM | TGI [25]: > 100 µM | TGI [26]: > 100 µM | TGI [27]: > 100 µM | TGI [65]: > 100 µM | TGI [28]: > 100 µM | TGI [29]: > 100 µM | TGI [30]: > 100 µM | TGI [31]: > 100 µM | TGI [32]: > 100 µM | TGI [33]: > 100 µM | TGI [58]: > 100 µM | TGI [34]: > 100 µM | TGI [35]: > 100 µM | TGI [36]: > 100 µM | TGI [37]: > 100 µM | TGI [38]: > 100 µM | TGI [39]: > 100 µM | TGI [40]: > 100 µM | TGI [41]: > 100 µM | TGI [42]: > 100 µM | TGI [43]: > 100 µM | TGI [44]: > 100 µM | GI50 [45]: 89.3 µM and 28.2 µM | TGI [45]: > 100 µM | TGI [46]: > 100 µM | TGI [47]: > 100 µM | TGI [48]: > 100 µM | TGI [49]: > 100 µM | TGI [50]: > 100 µM | TGI [51]: > 100 µM | GI50 [52]: > 100 µM | TGI [52]: > 100 µM | TGI [53]: > 100 µM | TGI [54]: > 100 µM
